In US20260258044A1, “PIPERIDINYL-METHYL-PURINE AMINE FUMARIC ACID SALTS, CRYSTALLINE FORMS, AND THEIR USE IN TREATING MEDICAL DISEASES AND CONDITIONS” (K36 Therapeutics, Inc., priority 2022, published 2026):
“Also recorded” adds a separate entry of the source.

How the values were obtained:
Type in all cases: physicochemical
[1] = accelerated stability study (HPLC and XRPD of recovered salts); conditions: for HPLC Purity (Area %) After Study / XRPD After Study: after one week at 75% relative humidity, 40° C.; for HPLC Purity (Area %) Before Study: before storage
Procedure: An accelerated stability study was conducted on crystalline Form 1 (prepared according to Procedure 2 of Example 1), Form 2, Form 3 (prepared according to Procedure 1 of Example 3), and Form 4 of (S)-1-((R)-3-amino-1-(4-((6-amino-9H-purin-9-yl)methyl)-6-(2,5-difluoro-4-methoxyphenyl) pyridin-3-yl)piperidin-3-yl)-2,2-difluoroethan-1-ol fumaric acid salt. Approximately 12 mg of each solid was placed into separate 4-mL vials, and then the vials were covered with a Kimwipe. The vials were stored for one week inside a stability chamber producing a relative humidity of 75% at 40° C.

[2] = water solubility of the crystalline solid; conditions: 37° C.
[3] = hygroscopicity by dynamic vapor sorption; conditions: transitioned from 2% to 95% relative humidity
Procedure: Dynamic vapor sorption was performed using a Q5000SA. The sample (5-15 mg) was loaded into a metallic quartz sample pan, suspended from a microbalance, and exposed to a humidified stream of nitrogen gas. Weight changes were relative to a matching empty reference pan opposite the sample, suspended from the microbalance. The sample was held for a minimum of 10 min at each humidity level and only progressed to the next humidity level if there was <0.002% change in weight between measurements (interval: 5 s) or 60 min had elapsed. The following program was used: • 1. Equilibration at 50% RH • 2. 50% to 2% RH (50%, 40%, 30%, 20%, 10%, and 2% RH) • 3. 2% to 95% RH (2%, 10%, 20%, 30%, 40%, 50%, 60%, 70%, 80%, 90%, and 95% RH) • 4. 95% to 2% RH (95%, 80%, 70%, 60%, 50%, 40%, 30%, 20%, 10%, and 2% RH) • 5. 2% to 50% RH (2%, 10%, 20%, 30%, 40%, and 50% RH).

HPLC Purity (Area %) After Study [1] | HPLC Purity (Area %) Before Study [1] | water solubility ([2]; after 30 minutes) | water solubility ([2]; after 24 hours) | increase in weight [3] | increase in weight as molar equivalents of water [3] | SMILES | XRPD After Study [1]
99.52 Area % | 99.50 Area % | 300 µg/mL | 1400 µg/mL | 1.5% |  | COc1cc(F)c(-c2cc(Cn3cnc4c(N)ncnc43)c(N3CCC[C@](N)([C@H](O)C(F)F)C3)cn2)cc1F.O=C(O)/C=C/C(=O)O [Form 1, (S)-1-((R)-3-amino-1-(4-((6-amino-9H-purin-9-yl)methyl)-6-(2,5-difluoro-4-methoxyphenyl)pyridin-3-yl)piperidin-3-yl)-2,2-difluoroethan-1-ol Fumaric Acid Salt] | No change; also recorded: Unchanged
99.49 Area % | 99.51 Area % | 2200 µg/mL | 1100 µg/mL |  |  | COc1cc(F)c(-c2cc(Cn3cnc4c(N)ncnc43)c(N3CCC[C@](N)([C@H](O)C(F)F)C3)cn2)cc1F.O=C(O)/C=C/C(=O)O [Form 2, (S)-1-((R)-3-amino-1-(4-((6-amino-9H-purin-9-yl)methyl)-6-(2,5-difluoro-4-methoxyphenyl)pyridin-3-yl)piperidin-3-yl)-2,2-difluoroethan-1-ol Fumaric Acid Salt] | Slight shifting of peaks at higher diffraction angles (2θ); also recorded: Slight Shifting of Certain
99.56 Area % | 99.58 Area % | 800 µg/mL | 700 µg/mL | 5.1% | approximately 1.8 molar equivalents | COc1cc(F)c(-c2cc(Cn3cnc4c(N)ncnc43)c(N3CCC[C@](N)([C@H](O)C(F)F)C3)cn2)cc1F.O=C(O)/C=C/C(=O)O [Form 3, (S)-1-((R)-3-amino-1-(4-((6-amino-9H-purin-9-yl)methyl)-6-(2,5-difluoro-4-methoxyphenyl)pyridin-3-yl)piperidin-3-yl)-2,2-difluoroethan-1-ol Fumaric Acid Salt] | Increased crystallinity; also recorded: Higher Crystallinity
99.59 Area % | 99.56 Area % | 700 µg/mL | 600 µg/mL | 5.5% | approximately 2.0 molar equivalents | COc1cc(F)c(-c2cc(Cn3cnc4c(N)ncnc43)c(N3CCC[C@](N)([C@H](O)C(F)F)C3)cn2)cc1F.O=C(O)/C=C/C(=O)O [Form 4, (S)-1-((R)-3-amino-1-(4-((6-amino-9H-purin-9-yl)methyl)-6-(2,5-difluoro-4-methoxyphenyl)pyridin-3-yl)piperidin-3-yl)-2,2-difluoroethan-1-ol Fumaric Acid Salt] | Conversion to Form 3
